In patent publication US5696138A, “Urea derivatives and their use” (priority 1993, dated 1997):

Key:
BK currents = BK currents (Bos taurus, UniProt Q28204); assay: Whole cell recordings (patch-clamp, voltage clamp) of membrane currents in calf aortic smooth muscle cells; format: cell-based; details: 1-10 μM in the bath
Experimental: (§1) All experiments were performed with patch-clamp technique (Hamill et al., Pflugers Arch. 391, 85-100 (1981)). The ion composition of the internal solution was (in mM) 140 KCl, 1 CaCl2, 1 MgCl2, 2 EGTA, 10 HEPES and the external solution contained 140 NaCl, 4 KCl, 2 CaCl2, 1 MgCl2 and 10 HEPES.
The membrane currents of calf aortic smooth muscle cells were determined in whole-cell recordings using voltage clamp mode (HEKA EPC-9 patch-clamp amplifier).

BK channel [1] = assay: Single channel experiments, inside-out patches of human coronary artery smooth muscle cell membrane; format: cell-based; details: 1-10 μM
Experimental: as §1
In inside-out patches of human coronary artery smooth muscle cell membrane single BK channels were activated by for example N-(3-(trifluoromethyl)phenyl)-N'-(2-hydroxy-5-chlorophenyl) urea (1-10 μM).

BK channel [2] = target: BK channel (Bos taurus, UniProt Q28204); assay: Single channel experiments, cultured bovine aortic smooth muscle cells; format: cell-based
BK channel (Bos taurus, UniProt Q28204), sequence (Q28204 whole entry): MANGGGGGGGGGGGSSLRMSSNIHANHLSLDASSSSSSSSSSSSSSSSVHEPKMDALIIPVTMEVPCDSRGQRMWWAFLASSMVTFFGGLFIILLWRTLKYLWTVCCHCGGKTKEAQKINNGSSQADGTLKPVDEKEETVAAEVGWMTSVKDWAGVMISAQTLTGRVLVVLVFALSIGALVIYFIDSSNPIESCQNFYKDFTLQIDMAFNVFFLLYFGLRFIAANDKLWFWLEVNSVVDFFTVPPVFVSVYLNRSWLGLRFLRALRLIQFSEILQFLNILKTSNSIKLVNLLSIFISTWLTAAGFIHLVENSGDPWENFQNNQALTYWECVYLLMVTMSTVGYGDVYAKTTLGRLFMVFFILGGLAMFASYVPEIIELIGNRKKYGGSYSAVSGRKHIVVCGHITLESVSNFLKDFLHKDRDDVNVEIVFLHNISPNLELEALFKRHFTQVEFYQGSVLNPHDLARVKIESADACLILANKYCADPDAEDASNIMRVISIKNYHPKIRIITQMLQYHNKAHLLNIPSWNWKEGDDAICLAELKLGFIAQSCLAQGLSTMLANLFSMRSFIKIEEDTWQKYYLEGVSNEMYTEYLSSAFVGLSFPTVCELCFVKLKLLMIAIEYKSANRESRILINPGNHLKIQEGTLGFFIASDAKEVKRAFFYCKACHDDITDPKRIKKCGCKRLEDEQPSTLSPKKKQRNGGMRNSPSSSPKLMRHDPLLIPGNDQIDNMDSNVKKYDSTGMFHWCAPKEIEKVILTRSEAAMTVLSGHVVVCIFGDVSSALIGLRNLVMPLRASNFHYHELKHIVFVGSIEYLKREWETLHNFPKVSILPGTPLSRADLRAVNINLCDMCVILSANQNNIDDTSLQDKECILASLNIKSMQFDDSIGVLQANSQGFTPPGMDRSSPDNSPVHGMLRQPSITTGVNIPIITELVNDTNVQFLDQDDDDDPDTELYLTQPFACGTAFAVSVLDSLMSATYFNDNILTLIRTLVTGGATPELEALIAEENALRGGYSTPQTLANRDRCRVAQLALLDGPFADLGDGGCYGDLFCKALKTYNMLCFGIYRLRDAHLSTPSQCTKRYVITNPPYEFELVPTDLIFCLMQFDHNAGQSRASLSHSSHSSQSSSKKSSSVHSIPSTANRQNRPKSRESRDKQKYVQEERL
BK channel (Bos taurus, UniProt Q28204), sequence (Q28067 whole entry partner): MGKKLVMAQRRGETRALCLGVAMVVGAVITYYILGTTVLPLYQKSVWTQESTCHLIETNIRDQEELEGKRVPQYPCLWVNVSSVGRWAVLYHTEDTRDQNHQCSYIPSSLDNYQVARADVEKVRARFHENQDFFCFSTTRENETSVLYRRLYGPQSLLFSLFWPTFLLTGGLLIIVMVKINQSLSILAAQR
Experimental: as §1
The BK channels were also activated by N-(3-(trifluoromethyl)phenyl)-N'-(2-hydroxy-5-chlorophenyl) urea and N-phenyl-N'-(2-hydroxy-5-chlorophenyl) urea at concentrations equal or greater than 3 μM and by N-(3-(trifluoromethyl)phenyl)-N'-(2-hydroxy-5-(trifluoromethyl)phenyl) urea at concentrations greater than 10 μM.

[3] = test system: cocaine induced hypermotility; assay: Cocaine motility test; format: in vivo; details: 10-30 mg/kg i.p. 15 min before 25 mg/kg cocaine; female NMRI mice; motility over 120 min
Experimental: The compound, N-(3-(trifluoromethyl)phenyl)-N'-(2-hydroxy-5-chlorophenyl) urea, has been studied in the cocaine motility test. Cocaine induces hypermotility due to an inhibition of dopamine reuptake. The test is recognized as a test predicting anti-psychotic activity.
Method: Two female NMRI mice (20-25 g) are placed in each test box (normal transparent plexiglas cage, w, l, h=21×39×19 cm) in the test room for at least 16 hours with food and water ad libitum before the test in order for the animals to habituate to the situation. The test compound is administered i.p. 15 min before saline or 25 mg/kg cocaine jip. to 32 mice (16 boxes) per dose. Food and water are withdrawn, and the motility is measured as the number of interrupted infrared photo-beams (8 per box placed 5 cm apart and 3 cm over the bottom of the cage) for the next 120 min.

[4] = test system: acetylcholine-contracted guinea-pig ileum; assay: Guinea-pig ileum experiment (relaxation of acetylcholine-contracted ileum); details: 3-30 μM; ileum precontracted with acetylcholine 0.015-5.0 μM
Experimental: The compound, N-(3-(trifluoromethyl)phenyl)-N'-(2-hydroxy-5-chlorophenyl) urea, has been studied for its ability to relax acetylcholine-contracted guinea-pig ileum. The smooth muscle cells of the ileum express many BK channels and the model predicts relaxing effects on the gastrointestinal or urogenital tracts.
Method: Ileum from guinea-pigs are isolated and mounted in an isometric contraction chamber. It is bathed in a physiological Krebs solution at 98° F. The ileum is precontracted with increasing concentrations of acetylcholine (0.015-5.0 μM). The contractions are reversed by including the compound in the bathing solution.

BK currents, sequence (Q28067 whole entry): as the sequence (Q28067 whole entry partner) above
BK currents, sequence (Q28204 whole entry): as the sequence (Q28204 whole entry) above

Row | Compound | activation of BK currents (blockable by charybdotoxin) (BK currents) | increase of the outward current (BK currents) | shift of the activation curve towards negative membrane potentials (BK currents) | activation of single BK channels (BK channel [1]) | increase of the open probability of the BK channel (BK channel [1]) | concentrations at which the BK channels were activated (BK channel [2]) | activation of the BK channel (BK channel [2]; 1 μM) | antagonism of cocaine induced hypermotility [3] | relaxation of acetylcholine-contracted guinea-pig ileum [4]
1 | O=C(Nc1cccc(C(F)(F)F)c1)Nc1cc(Cl)ccc1O [N-(3-(trifluoromethyl)phenyl)-N'-(2-hydroxy-5-chlorophenyl) urea] | specifically activated BK currents | up to 10 times | more than -60 mV | activated | several hundred | ≥ 3 µM | significantly activated | antagonizes cocaine induced hypermotility | relaxes the ileum in a dose-dependent way
2 | O=C(Nc1cccc(C(F)(F)F)c1)Nc1cc(C(F)(F)F)ccc1O [N-(3-(trifluoromethyl)phenyl)-N'-(2-hydroxy-5-(trifluoromethyl)phenyl) urea] |  |  |  |  |  | greater than 10 μM |  |  | 
3 | O=C(Nc1ccccc1)Nc1cc(Cl)ccc1O [N-phenyl-N'-(2-hydroxy-5-chlorophenyl) urea] |  |  |  |  |  | ≥ 3 µM |  |  | 
